Data taken from patent US12365705B2, “Epitope tags recognized by specific binders” (NANOTAG BIOTECHNOLOGIES GmbH, priority 2018, dated 2025).

Experiments:
[1] = tested on: NbALFA^PE (SEQ ID NO: 134); test: Off-rate assay: peptide elution of ALFA^ST-tagged shGFP2 from ALFA Selector^PE resin; type: binding, Alpaca; details: for t1/2: peptide elution from ALFA Selector^PE
Method: FIG. 8: Interaction of ALFA^ST-tagged proteins with ALFA Selector^ST and ALFA Selector^PE resins. • A; Sketch of ALFA Selector resins bound to shGFP2-ALFA^ST. In this sketch, the ALFA Selector resin could be ALFA Selector^ST or ALFA Selector^PE. • B and C; Peptide elution from NbALFA-coupled affinity resins. […] To estimate off-rates, the resins were suspended PBS containing an excess of free ALFA^ST peptide and incubated at 25° C. Control reactions were carried out without peptide. At indicated time points, shGFP2 released from the resin was quantified. […] Lines represent fits to a single exponential. Efficient peptide elution of shGFP2-ALFA^ST from ALFA Selector^E was observed already after 15-20 min at room temperature. […] A photo was taken upon UV illumination after 3 h of elution (C). • D; Resistance towards stringent washing steps. ALFA Selector variants described in B were charged with either ALFA^ST-shGFP2 or shGFP2-ALFA^ST and incubated with a 10-fold volume of the indicated substances for 1 h at 25° C. with shaking. Without further washing steps, photos were taken upon UV illumination after sedimentation of the beads. • E; Resistance towards non-physiological pH. Similar to D. Here, however, the resin was washed to remove non-bound material after incubating at indicated pH for 30 min. Photos were taken after re-equilibration in PBS to allow for recovery of the GFP fluorescence.
After washing with PBS, the beads were suspended in a 10-fold excess of PBS containing 200 μM free ALFA^ST peptide and gently mixed at 25° C. Control reactions were carried out without peptide. At indicated time points, specific elution from the beads was quantified using the GFP fluorescence released into the supernatant. Shown are mean fluorescence readings of three experiments as well as standard deviations for each time point. Lines represent fits to a single exponential. Half times are given for peptide elution from ALFA Selector^PE only. […] FIG. 10A recapitulates data shown in FIG. 8B and is repeated here to allow for a direct comparison. Left panels: Sketch illustrating the experimental setup. The ALFA Selector resin could be ALFA Selector^ST or ALFA Selector^PE; middle panels: Experiments performed with ALFA Selector^ST; right panel: Experiments performed with ALFA Selector^PE.
Next, we site-specifically immobilized NbALFA^ST on an agarose-based resin with ultra-low background via a hydrophilic and flexible linker. Binding to the nanobody-coupled resin was analyzed using an ALFA^ST-tagged GFP variant (shGFP2; Frey, S. et al. Surface Properties Determining Passage Rates of Proteins through Nuclear Pores. Cell 174, 202-217.e9 (2018); FIG. 8A, B). As expected, shGFP2-ALFA^ST efficiently and tightly bound to the resulting resin. […]

[2] = tested on: NbALFA^ST (SEQ ID NO: 133); test: Off-rate assay: peptide elution of ALFA-tagged shGFP2 fusions from ALFA Selector^ST resin; type: binding, Alpaca
Method: After washing 4 times with PBS, the beads were suspended in a 10-fold excess of PBS containing 200 μM ALFA^ST peptide (Ac-[sequence]-Amide, SEQ ID NO: 179) and gently mixed at room temperature. At indicated time points, specific elution from the beads was quantified using the GFP fluorescence released into the supernatant. Shown are mean fluorescence values from three independent experiments performed in parallel and standard deviations for each time point. […] C, 10 μl of ALFA Selector^ST resin saturated with either ALFA^ST-shGFP2 (top row) or ALFA^PE-shGFP2 (bottom row) were transferred into 8-well PCR strips. After removing remaining liquid, the beads were incubated with 10 μl of the indicated substances for 60 min at room temperature. Photos were taken after sedimentation of the beads.
20 μl ALFA Selector^ST or ALFA Selector^PE (NanoTag Biotechnologies) was saturated with the respective recombinant target protein. After washing 4× with PBS, the beads were suspended in a 10-fold excess of PBS containing 200 μM free ALFA^ST peptide and mixed at 25° C. Control reactions were carried out without peptide. At indicated time points, specific elution from the beads was quantified using the GFP fluorescence released into the supernatant (Q-Bit 3.0; Thermo-Fischer Scientific). Three independent experiments were performed in parallel. Mean values, standard deviations and exponential fits were calculated using GraphPad Prism 5.0. Photographic pictures were taken upon UV illumination using a Nikon D700 equipped with a 105 mm macro lens (Nikon).

[3] = property of tag; cited from earlier work
[4] = tested on: ALFA^ST-tagged target proteins (ALFA^ST-Vimentin or Tom70-EGFP-ALFA^ST); test: Intrabody-based detection in co-transfected COS-7 cells; type: cell-based; details: co-expression in cytoplasm
Text: Grey boxes indicate CDRs 1-3 (AbM definition, SEQ ID NOs: 115-117). • C: COS-7 cells transfected with Tom70-EGFP-ALFA^ST (upper row) or Tom70-EGFP-ALFA^PE (lower row) were fixed with 4% paraformaldehyde. […] First column: FluoTag-X2 anti-ALFA; second column: target detection using the intrinsic EGFP fluorescence; third column: overlay incl. […] Right column: Sketch of ALFA-tagged vimentins detected by fluorescently labeled NbALFA^ST. • E: Intrabody-based detection of ALFA^ST-tagged proteins. COS-7 cells were co-transfected with an NbALFA^ST-mScarlet-I fusion and ALFA^ST_tagged target proteins. Target proteins were detected via EGFP fluorescence (for TOM70-EGFP-ALFA^ST) or immunofluorescence using FluoTag anti-ALFA AbberiorStar635P (for ALFA^ST-FLAG-Vimentin). In parallel, NbALFA^ST-mScarlet-I was detected by the red mScarlet-I fluorescence. Note the excellent co-localization between the target protein (left column) and the mScarlet-I signal (middle column).
We next wanted to know if our NbALFA^ST can also be used as an intrabody. […]

Chain of NbALFA^PE (SEQ ID NO: 134) (as listed by the source): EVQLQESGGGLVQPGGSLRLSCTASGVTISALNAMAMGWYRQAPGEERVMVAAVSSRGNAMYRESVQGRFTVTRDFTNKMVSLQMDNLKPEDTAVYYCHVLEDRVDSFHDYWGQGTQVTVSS

Molecule: ALFA^ST-shGFP2: GFP variant shGFP2 with N-terminal ALFA^ST tag
- t1/2 ([1]; N-terminal ALFA^ST tag): ~50 s
- protein remained on the resin ([2]; after 90 minutes competition with 10 column volumes of 200 μM ALFA^ST peptide): > 95%

Molecule: YPYDVPDYA [HA-tag]
- Water solubility [3]: poor

Molecule: shGFP2-ALFA^ST: GFP variant shGFP2 with C-terminal ALFA^ST tag
- time to efficient release from ALFA Selector^PE ([1]; native conditions, room temperature, competition with free ALFA^ST peptide): 15 to 20 min
- washing time over which target protein remained stably bound to ALFA Selector^PE ([1]; no free peptide): > 1 h
- t1/2 ([1]; C-terminal ALFA^ST tag): ~180 s
- protein remained on the resin ([2]; after 60 minutes competition with 10 column volumes of 200 μM ALFA^ST peptide): > 95%
- peptide elution from ALFA Selector^ST ([2]; excess of free ALFA^ST peptide (200 μM)): inefficient even after prolonged incubation

B1: NbALFA^ST fused to mScarlet-I: NbALFA^ST fused to red fluorescent protein mScarlet-I, used as intrabody (protein)
chain: MGSGDASDSEVQLQESGGGLVQPGGSLRLSCTASGVTISALNAMAMGWYRQAPGERRVMVAAVSERGNAMYRESVQGRFTVTRDFTNKMVSLQMDNLKPEDTAVYYCHVLEDRVDSFHDYWGQGTQVTVSSEPKTPKPQTSGSTGENVATMVSKGEAVIKEFMRFKVHMEGSMNGHEFEIEGEGEGRPYEGTQTAKLKVTKGGPLPFSWDILSPQFMYGSRAFIKHPADIPDYYKQSFPEGFKWERVMNFEDGGAVTVTQDTSLEDGTLIYKVKLRGTNFPPDGPVMQKKTMGWEASTERLYPEDGVLKGDIKMALRLKDGGRYLADFKTTYKAKKPVQMPGAYNVDRKLDITSHNEDYTVVEQYERSEGRHSTGGMDELYK
modifications: fusion protein
notes: NbALFA^ST fused to red fluorescent protein mScarlet-I, used as intrabody
- co-localization of mScarlet-I signal with target protein [4]: robustly co-localized
